According to PMC9775090, “Identification of Bioactive Peptides from Nannochloropsis oculata Using a Combination of Enzymatic Treatment, in Silico Analysis and Chemical Synthesis” (Biomolecules, 2022):
“Also recorded” adds a separate entry of the source. Where two headings read alike, the source gives them in different places. Where no end group is shown, it is not given here.

What was measured:
ovine recombinant COX-1 = test: Cyclooxygenase inhibition, cell free assay (COX-1); assay type: biochemical; conditions: for COX-1 inhibition: assayed at 1 mg/mL, ovine recombinant COX-1
Method: (§1) In vitro assays to determine COX inhibition were performed using cell free assays as described previously. The synthesised peptides were incubated independently with ovine recombinant COX-1 (Cayman Chemicals, Hamburg, Germany) or human recombinant COX-2 (Cayman Chemicals, Hamburg, Germany). The assay was carried out in accordance with the manufacturer’s instructions. Resveratrol (Merck, Dublin, Ireland) was used as a positive control.

human recombinant COX-2 = test: Cyclooxygenase inhibition, cell free assay (COX-2); assay type: biochemical; conditions: for COX-2 inhibition: assayed at 1 mg/mL, human recombinant COX-2
Method: as §1

Escherichia coli DSM 301 = test: Modified agar well diffusion assay, E. coli; assay type: cell-based; conditions: 1 mg/mL in 30 µL well, 24 h
Method: (§2) The antibacterial activity of synthesised peptides was determined using an overnight culture of the pathogenic bacteria in a modified agar well diffusion assay as described previously. A zone of inhibition around wells containing the peptides indicates antibacterial activity. Escherichia coli DSM 301 and Bacillus cereus DSM 31 were used as indicator pathogen strains. Ampicillin (Merck, Dublin, Ireland) and Cecropin P1 (Merck, Dublin Ireland) were used as positive control antibiotics and antimicrobial peptides. Positive controls or test peptides were incubated (concentration 1 mg/mL) in a well (30 µL capacity) on the agar plate which was seeded with the pathogenic strain at an overnight culture to media ratio of 100 µL: 500 mL (v:v). Plates were left at 4 °C for 4 h and subsequently incubated at the optimum culture temperature and conditions for the pathogen in question. After 24 h, zones of inhibition indicated the presence of antibacterial activity.

[1] = target: T1, Angiotensin-1-converting enzyme (ACE-1) (Homo sapiens, UniProt P12821); test: ACE-1 inhibition, ACE kit-WST 96-well colorimetric assay; assay type: biochemical; conditions: for Observed Bioactivity In Vitro (ACE-1): result in words; for % ACE-1 inhibition / inhibition at 1000 µg/mL: synthesised peptides assayed at 1 mg/mL, n = 3; for inhibition at 1000 µg/mL: read-out: % ACE-1 inhibition
T1 construct: purchased Tebu Bio (TebuBio Ltd., Peterborough, UK)
Method: The ACE-I inhibitory activity was determined using a 96 well plate bioassay supplied by Tebu-Bio (TebuBio Ltd., Peterborough, UK) in accordance with the manufacturers’ instructions. Briefly, the enzyme working solution and indicator working solution were prepared according to the manufacturer’s instructions. […] Blanks were included. 20 µL of the substrate buffer was added to each well, followed by 20 µL of the enzyme working solution to experimental wells and blank one wells. The plate was incubated at 37 °C for 1 h. After incubation, 200 µL indicator working solution was added to each well, and the plate was incubated at room temperature for 10 min. […] Absorbance was measured using a plate reader at 450 nm. For IC50 determination, the ACE kit-WST was also used.

Bacillus cereus DSM 31 = test: Modified agar well diffusion assay, B. cereus; assay type: cell-based; conditions: 1 mg/mL in 30 µL well, 24 h
Method: as §2

ACE-1 = conditions: cited from earlier work
Method: Limited studies exist concerning the use of Nannochloropsis sp. as a source of protein, protein hydrolysates or bioactive peptides. Recently, […] et al. […] Enzymatic treatment of biomass is a useful strategy for generation of bioactive peptide containing concentrates. […] These peptides were selected based on their Peptide Ranker scores and amino acid sequences. The ACE-1 and COX-1/COX-2 assays were performed as described previously described using commercially available kits from Cambridge BioSciences (Cambridge BioSciences, Cambridge, UK).

[2] = peptides from pepsin treated Nannochloropsis oculata

T1 sequence (P12821 30-1306): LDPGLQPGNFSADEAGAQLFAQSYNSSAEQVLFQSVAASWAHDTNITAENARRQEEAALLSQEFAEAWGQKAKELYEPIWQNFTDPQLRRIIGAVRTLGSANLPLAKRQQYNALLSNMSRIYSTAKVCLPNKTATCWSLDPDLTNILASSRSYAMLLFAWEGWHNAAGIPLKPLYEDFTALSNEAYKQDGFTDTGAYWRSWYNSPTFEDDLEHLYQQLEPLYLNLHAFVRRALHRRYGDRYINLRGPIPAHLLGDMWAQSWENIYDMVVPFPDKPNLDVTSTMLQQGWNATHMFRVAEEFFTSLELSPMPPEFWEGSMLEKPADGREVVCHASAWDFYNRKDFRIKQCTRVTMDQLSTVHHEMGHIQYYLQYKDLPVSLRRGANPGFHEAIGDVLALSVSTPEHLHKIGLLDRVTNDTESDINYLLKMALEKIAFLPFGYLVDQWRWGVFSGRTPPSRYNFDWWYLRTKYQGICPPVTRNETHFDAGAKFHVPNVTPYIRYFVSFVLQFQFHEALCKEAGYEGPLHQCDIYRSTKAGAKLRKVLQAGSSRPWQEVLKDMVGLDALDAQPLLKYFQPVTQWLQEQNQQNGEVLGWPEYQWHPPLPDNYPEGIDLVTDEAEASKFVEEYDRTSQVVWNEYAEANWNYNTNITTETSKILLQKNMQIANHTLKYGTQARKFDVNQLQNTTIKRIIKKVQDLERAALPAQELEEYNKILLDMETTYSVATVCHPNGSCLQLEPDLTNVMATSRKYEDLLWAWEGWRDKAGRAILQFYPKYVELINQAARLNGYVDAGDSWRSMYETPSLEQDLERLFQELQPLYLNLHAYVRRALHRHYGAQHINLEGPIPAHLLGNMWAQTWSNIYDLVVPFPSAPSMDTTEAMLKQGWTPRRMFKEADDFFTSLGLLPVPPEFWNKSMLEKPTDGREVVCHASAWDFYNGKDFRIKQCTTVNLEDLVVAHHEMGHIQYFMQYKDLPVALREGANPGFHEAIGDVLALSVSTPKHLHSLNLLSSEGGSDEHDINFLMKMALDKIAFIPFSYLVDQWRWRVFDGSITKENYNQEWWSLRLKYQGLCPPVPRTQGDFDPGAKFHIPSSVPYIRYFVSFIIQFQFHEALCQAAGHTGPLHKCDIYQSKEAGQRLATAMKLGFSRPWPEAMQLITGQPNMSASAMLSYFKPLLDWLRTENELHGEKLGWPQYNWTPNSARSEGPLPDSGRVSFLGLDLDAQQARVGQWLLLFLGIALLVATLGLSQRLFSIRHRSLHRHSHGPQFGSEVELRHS

Oc1ccc(/C=C/c2cc(O)cc(O)c2)cc1 [Resveratrol, reference compound]
COX-1 inhibition (ovine recombinant COX-1): 78.41 (±2.92) %
COX-2 inhibition (human recombinant COX-2): 70.41%

AGDVGFDPLGF
Antibacterial activity against E. coli (zone of inhibition) (Escherichia coli DSM 301): having antibacterial activity in vitro against E. coli; also recorded: produced a zone of inhibition; also recorded: Antibacterial activity against E. coli at a concentration of 1 mg/mL
Observed Bioactivity In Vitro (ACE-1) [1]: ACE-1 inhibitory
Antibacterial activity against B. cereus (zone of inhibition) (Bacillus cereus DSM 31): not B. cereus

GMNNLTP [GMNNLTP]
IC50 (ACE-1; [2]): 123 µM

KGGGSGANGGRL [peptide identified in Nannochloropsis sp. xylanase permeate, chemically synthesised; spelt three ways]
% ACE-1 inhibition ([1]; listed as KGGGGGANGGRL): 35.81%

LVGADAHALGVICS [peptide corresponding to a transcriptor initiation protein from Porphyridium sp., chemically synthesised]
Observed Bioactivity In Vitro (ACE-1) [1]: ACE-1 inhibition

Leu-Glu-Gln [LEQ]
IC50 (ACE-1; [2]): 173 µM

Leu-Val-Thr-Val-Met
IC50 (ACE-1; purified peptide from Alcalase hydrolysate): 18 µM

NKFPYTTQ [NKFPYTTQ]
inhibition at 1000 µg/mL [1]: 76.8%

VVGAVGAADLL [peptide corresponding to HEAT repeat-containing protein 1 of Ectocarpus siliculosus, chemically synthesised]
Observed Bioactivity In Vitro (ACE-1) [1]: ACE-1 inhibition
% ACE-1 inhibition [1]: 25.73%

VYNKFPYTTQ [VYNKFPYTTQ]
inhibition at 1000 µg/mL [1]: 81.7%

YANDLLCMPI [peptide identified in Nannochloropsis sp. xylanase permeate, chemically synthesised]
COX-1 inhibition (ovine recombinant COX-1): 34.5%
Observed Bioactivity In Vitro (COX-1) (ovine recombinant COX-1; result in words): COX-1 and COX-2 inhibition
COX-2 inhibition (human recombinant COX-2): 47.65%
Observed Bioactivity In Vitro (COX-2) (human recombinant COX-2; result in words): COX-1 and COX-2 inhibition
